Measured values published in the NIST ThermoML archive (doi:10.1016/j.fluid.2011.05.002).

What was measured:
[1] = for mass density / viscosity: Liquid; for mass density: Vibrating tube method; for viscosity: 101.33 kPa, Capillary tube (Ostwald / Ubbelohde) method; for surface tension liquid-gas: Ring tensiometer
[2] = molar heat capacity at constant pressure; details: 101.33 kPa, Liquid, Small sample (50 mg) DSC

CCCC[n+]1cccc(C)c1.N#C[C-](C#N)C#N [1-butyl-3-methylpyridinium tricyanomethanide]
Details	mass density [kg/m3]	molar heat capacity at constant pressure [J/K/mol]	surface tension liquid-gas [mN/m]	viscosity [mPa·s]
[1], 283.15 K	1052.57	–	–	–
[1], 293.15 K	1045.79	–	–	–
[1], 295.15 K	–	–	–	51.42
[1], 296.05 K	–	–	27.7	–
[1], 298.15 K	–	–	–	43.92
[1], 303.15 K	1039.12	–	–	34.87
[1], 305.75 K	–	–	27.3	–
[1], 308.15 K	–	–	–	28.22
[1], 313.15 K	1032.55	–	–	23.27
[1], 313.75 K	–	–	26.9	–
[1], 320.65 K	–	–	26.6	–
[1], 323.15 K	1026.1	–	–	16.25
[1], 329.85 K	–	–	26.3	–
[1], 333.15 K	1019.76	–	–	12.19
[1], 338.15 K	–	–	26	–
[1], 343.15 K	1013.52	–	–	9.56
[1], 346.15 K	–	–	25.5	–
[1], 353.15 K	1007.34	–	–	7.54
[1], 356.15 K	–	–	25.1	–
[1], 363.15 K	1001.13	–	–	6.07
[2], 298 K	–	468	–	–
[2], 323 K	–	479	–	–
